From patent US20230141403A1 (Hoffmann-La Roche Inc., priority 2020, published 2023)
Counter-ions that a name gives are not always drawn. Like-named read-outs stand apart in the source and are kept apart here.

Tested on: Acinetobacter baumannii ATCC17961
Assay: Antimicrobial susceptibility testing: 90% growth inhibitory concentration (IC90) determination
Format: cell-based
Settings: 90% growth inhibitory concentration, Iso-Sensitest broth, optical density at 600 nm over 16h, 35±2° C., read-out: AB ATCC 17961 IC90
Description: Antimicrobial Susceptibility Testing:
90% Growth Inhibitory Concentration (IC90) Determination
The in vitro antimicrobial activity of the compounds was determined according to the following procedure:
The assay used a 10-points Iso-Sensitest broth medium to measure quantitatively the in vitro activity of the compounds against Acinetobacter baumannii ATCC17961 or ATCC17978.
Stock compounds in DMSO were serially twofold diluted (e.g. range from 50 to 0.097 μM final concentration) in 384 wells microtiter plates and inoculated with 49 μl the bacterial suspension in Iso-Sensitest medium to have a final cell concentration of ˜5×10^(5) CFU/ml in a final volume/well of 50 ul/well. Microtiter plates were incubated at 35±2° C.
Bacterial cell growth was determined with the measurement of optical density at λ=600 nm each 20 minutes over a time course of 16h. Growth inhibition was calculated during the logarithmic growth of the bacterial cells with determination of the concentration inhibiting 50% (IC50) and 90% (IC90) of the growth.
Table 2 provides the 90% growth inhibitory concentrations (IC90) in micromoles per liter of the compounds of present invention obtained against the strain Acinetobacter baumannii ATCC17961.

[1] = Acinetobacter baumannii, ATCC17961, 16 h

Structure (SMILES)	IC90 [1] [nM]	IC90 [nM]
CCc1cc(Nc2nccn3c(-c4ccc(OC)c(F)c4F)cnc23)ccc1S(=O)(=O)N1CCN(C(=O)C2CCNCC2)CC1 [Example 108, (4-((4-((3-(2,3-difluoro-4-methoxyphenyl)imidazo[1,2-a]pyrazin-8-ylamino)-2-ethylphenyl)sulfonyl)piperazin-1-yl)(piperidin-4-yl)methanone hydrochloride]	220	–
CCc1cc(Nc2nccn3c(-c4ccc(OC)c(F)c4F)cnc23)ccc1S(=O)(=O)N1CCN(C(=O)CN(C)C)CC1 [Example 104, 1-(4-((4-((3-(2,3-difluoro-4-methoxyphenyl)imidazo[1,2-a]pyrazin-8-yl)amino)-2-ethylphenyl)sulfonyl)piperazin-1-yl)-2-(dimethylamino)ethan-1-one]	340	–
CCc1cc(Nc2nccn3c(-c4ccc(OC)c(F)c4F)cnc23)ccc1S(=O)(=O)N1CCN(C(=O)[C@@H]2CCCN2)CC1 [Example 105, (S)(4-(4-((3-(2,3-difluoro-4-methoyphenyl)imidazo[1,2-a]pyrazin-8-yl)amino)-2-ethylphenyl)sulfonyl)piperazin-1-yl)(pyrrolidin-2-yl)methanone hydrochloride]	310	–
O=C1NCCN1c1ccc(Nc2nccn3c(-c4ccc(OC(F)F)cc4)cnc23)cc1 [Example 3, 1-[4-[[3-[4-(difluoromethoxy)phenyl]imidazo[1,2-a]pyrazin-8-yl]amino]phenyl]imidazolidin-2-one]	720	–
COc1ccc(-c2cnc3c(Nc4ccc5c(c4)CCC5NCCN)nccn23)c(F)c1F (centres unmarked) [Example 6, N1-(2-aminoethyl)-N5-[3-(2,3-difluoro-4-methoxy-phenyl)imidazo[1,2-a]pyrazin-8-yl]indane-1,5-diamine formic acid]	300	–
NCCCCCC1CC(=O)N(c2ccc(Nc3nccn4c(-c5ccc(OC(F)F)cc5)cnc34)cc2)C1 (centres unmarked) [Example 62, 4-(5-aminopentyl)-1-(4-((3-(4-(difluoromethoxy)phenyl)imidazo[1,2-a]pyrazin-s-yl)amino)phenyl)pyrrolidin-2-one]	94	–
COc1ccc(-c2cnc3c(Nc4ccc(S(C)(=O)=NCCCNC(=O)[C@@H]5C[C@@H](O)CN5)cc4)nccn23)c(F)c1F (mixture of isomers) [Example 33, rac-(2R,4S)-N-(3-(((4-((3-(2,3-difluoro-4-methoxyphenyl)imidazo[1,2-a]pyrazin-8-yl)amino)phenyl) (methyl)(oxo)-16-sulfaneylidene)amino)propyl)-4-hydroxypyrrolidine-2-carboxamide dihydrochloride]	490	–

Next, values leading:

IC90 [1] [nM]	IC90 [nM]	Structure (SMILES)
120	–	COc1ccc(-c2cnc3c(Nc4ccc(S(=O)(=O)NCCOCCN)c(C)c4)nccn23)c(F)c1F [Example 100, N-(2-(2-aminoethoxy)ethyl)-4-((3-(2,3-difluoro-4-methoxyphenyl)imidazo[1,2-a]pyrazin-8-yl)amino)-2-methylbenzenesulfonamide hydrochloride]
86	–	CN=S(=O)(CCCN)c1ccc(Nc2nccn3c(-c4ccc(OC)c(F)c4F)cnc23)cc1 (centres unmarked) [Example 71, N-(4-(3-amino-N-methylpropylsulfonimidoyl)phenyl)-3-(2,3-difluoro-4-methoxyphenyl)imidazo[1,2-a]pyrazin-8-amine]
180	–	COc1ccc(-c2cnc3c(Nc4ccc([S@](C)(=O)=NCCCNC(=O)[C@@H]5C[C@@H](O)CN5)c(C)c4)nccn23)c(F)c1F [Example 29, (2S,4R)—N-(3-(((−)-(4-((3-(2,3-difluoro-4-methoxyphenyl)imidazo[1,2-a]pyrazin-s-yl)amino)-2-methylphenyl)(methyl)(oxo)-l6-sulfaneylidene)amino)propyl)-4-hydroxypyrrolidine-2-carboxamide]
86	–	COc1ccc(-c2cnc3c(Nc4ccc([S@](C)(=O)=NCCCN)c(C)c4)nccn23)c(F)c1F [Example 27, (−)-((3-aminopropyl)imino)(4-((3-(2,3-difluoro-4-methoxyphenyl)imidazo[1,2-a]pyrazin-8-yl)amino)-2-methylphenyl)(methyl)-l6-sulfanone]
180	–	COc1ccc(-c2cnc3c(Nc4ccc(S(=O)(=O)NCCOCCN(C)C)c(Cl)c4)nccn23)c(F)c1F [Example 97]
48	–	COc1ccc(-c2cnc3c(Nc4ccc([S@@](C)(=O)=NCCCN)c(C)c4)nccn23)c(F)c1F [Example 28, (+)-((3-aminopropyl)imino) (4-((3-(2,3-difluoro-4-methoxyphenyl)imidazo[1,2-a]pyrazin-8-yl)amino)-2-methylphenyl) (methyl)-16-sulfanone]
–	170	CCS(=O)(=NC)c1ccc(Nc2nccn3c(-c4ccc(OC)c(F)c4F)cnc23)cc1Cl (centres unmarked) [Example 24, (2-chloro-4-((3-(2,3-difluoro-4-methoxyphenyl)imidazo[1,2-a]pyrazin-s-yl)amino)phenyl)(ethyl)(methylimino)-l6-sulfanone]
130	–	COc1ccc(-c2cnc3c(Nc4ccc([S@@](C)(=O)=NCCCNC(=O)[C@@H]5C[C@@H](O)CN5)c(C)c4)nccn23)c(F)c1F [Example 30, (2S,4R)-N-(3-(((+)-(4-((3-(2,3-difluoro-4-methoxyphenyl)imidazo[1,2-a]pyrazin-8-yl)amino)-2-methylphenyl) (methyl)(oxo)-16-sulfaneylidene)amino)propyl)-4-hydroxypyrrolidine-2-carboxamide dihydrochloride]
48	–	CN=S(C)(=O)c1ccc(Nc2nccn3c(-c4ccc(OCC#N)c(F)c4F)cnc23)cc1C (centres unmarked) [Example 25, 2-(4-(8-((4-(N,S-dimethylsulfonimidoyl)-3-methylphenyl)amino)imidazo[1,2-a]pyrazin-3-yl)-2,3-difluorophenoxy) acetonitrile]
120	–	COc1ccc(-c2cnc3c(Nc4ccc(Cn5ccnc5)c(C)c4)nccn23)c(F)c1F [Example 118, 3-(2,3-difluoro-4-methoxy-phenyl)-N-[4-(imidazol-1-ylmethyl)-3-methyl-phenyl]imidazo[1,2-a]pyrazin-8-amine]
